# Key:
# ZR-75-1 cells = experiment: CellTiter-Glo Luminescent Cell Viability Assay, ZR-75-1; type: cell-based; settings: Homo sapiens, ZR-75-1; breast cancer cell line; mean ± SD, n=3; read-out: EC50 ZR‐75‐1
# AN3CA cells = experiment: CellTiter-Glo Luminescent Cell Viability Assay, AN3CA; type: cell-based; settings: Homo sapiens, AN3-CA; endometrium cancer cell line; mean ± SD, n=3; read-out: EC50 AN3CA
# Akt1 [1] = target: T1, Akt1 (Homo sapiens, UniProt P31749); experiment: HTRF KinEASE assay, IC50 against Akt1; settings: Akt1; repeated in Table 2 for comparison; mean ± SD, n=3
# T1 sequence (P31749 whole entry): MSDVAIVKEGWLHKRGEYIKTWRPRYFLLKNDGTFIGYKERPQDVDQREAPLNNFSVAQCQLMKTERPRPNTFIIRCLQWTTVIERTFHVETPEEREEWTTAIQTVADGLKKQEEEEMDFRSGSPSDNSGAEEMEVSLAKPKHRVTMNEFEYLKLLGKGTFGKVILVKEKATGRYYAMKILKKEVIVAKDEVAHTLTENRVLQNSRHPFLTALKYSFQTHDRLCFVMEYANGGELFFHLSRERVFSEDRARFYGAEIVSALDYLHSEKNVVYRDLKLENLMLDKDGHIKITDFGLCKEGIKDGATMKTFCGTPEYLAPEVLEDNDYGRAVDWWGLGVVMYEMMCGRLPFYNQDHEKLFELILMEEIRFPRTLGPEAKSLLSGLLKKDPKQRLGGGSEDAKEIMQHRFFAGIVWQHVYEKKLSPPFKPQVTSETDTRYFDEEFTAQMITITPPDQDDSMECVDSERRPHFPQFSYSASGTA
# From the text: (§1) The homogeneous time‐resolved fluorescence (HTRF®) KinEASE™ assay by Cisbio was used to determine the half‐maximal inhibitory concentration (IC50) values of the synthesised compounds against Akt1, Akt2 and Akt3 (Table 1).[26]
# (§2) The HTRF® KinEASE™ assay (Cisbio) was used to determine the IC 50 values of the synthesised
# (§3) al. (Akt2 and Akt3).1,5 The three wild-type Akt isoforms used were acquired from ProQinase.
# Akt2 = target: T2, Akt2 (Homo sapiens, UniProt P31751); experiment: HTRF KinEASE assay, IC50 against Akt2; type: biochemical; settings: wild-type Akt2; mean ± SD, n=3
# T2 construct: purchased ProQinase
# T2 sequence (P31751 whole entry): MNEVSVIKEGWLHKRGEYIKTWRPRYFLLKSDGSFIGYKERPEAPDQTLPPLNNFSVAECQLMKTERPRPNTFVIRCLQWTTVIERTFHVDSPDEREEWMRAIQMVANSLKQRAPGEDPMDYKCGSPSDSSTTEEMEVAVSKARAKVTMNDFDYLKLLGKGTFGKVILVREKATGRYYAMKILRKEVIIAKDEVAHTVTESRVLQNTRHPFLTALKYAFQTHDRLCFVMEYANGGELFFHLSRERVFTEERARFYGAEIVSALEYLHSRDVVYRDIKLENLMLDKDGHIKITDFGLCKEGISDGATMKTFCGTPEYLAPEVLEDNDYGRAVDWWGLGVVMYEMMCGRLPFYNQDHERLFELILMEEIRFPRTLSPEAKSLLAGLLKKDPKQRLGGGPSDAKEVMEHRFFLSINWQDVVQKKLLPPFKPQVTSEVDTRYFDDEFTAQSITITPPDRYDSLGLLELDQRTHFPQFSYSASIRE
# From the text: as §1, §2, §3
# T47D cells = experiment: CellTiter-Glo Luminescent Cell Viability Assay, T47D; type: cell-based; settings: Homo sapiens, breast cancer cell line, mean ± SD, n=3
# MCF-7 cells = experiment: CellTiter-Glo Luminescent Cell Viability Assay, MCF-7; type: cell-based; settings: Homo sapiens, MCF7; breast cancer cell line; mean ± SD, n=3; read-out: EC50 MCF‐7
# Akt3 = Akt3 (Homo sapiens, UniProt Q9Y243); experiment: HTRF KinEASE assay, IC50 against Akt3
# Chain of Akt3 (Q9Y243 whole entry): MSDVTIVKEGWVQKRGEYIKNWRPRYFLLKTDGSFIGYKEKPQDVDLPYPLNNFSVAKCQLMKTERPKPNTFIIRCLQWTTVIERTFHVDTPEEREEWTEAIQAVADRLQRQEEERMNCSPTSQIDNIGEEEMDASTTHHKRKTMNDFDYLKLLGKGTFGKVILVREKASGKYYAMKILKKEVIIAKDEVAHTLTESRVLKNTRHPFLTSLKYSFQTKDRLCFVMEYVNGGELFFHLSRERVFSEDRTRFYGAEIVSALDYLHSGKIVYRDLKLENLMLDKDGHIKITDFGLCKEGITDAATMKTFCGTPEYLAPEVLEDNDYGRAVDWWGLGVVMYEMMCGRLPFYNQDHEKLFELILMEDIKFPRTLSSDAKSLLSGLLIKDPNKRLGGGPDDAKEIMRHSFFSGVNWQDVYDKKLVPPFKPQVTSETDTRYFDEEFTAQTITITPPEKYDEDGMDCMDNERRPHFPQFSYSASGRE
# From the text: as §1, §2, §3
# wild-type Akt1 [2] = target: T3, wild-type Akt1 (Homo sapiens, UniProt P31749); parameters: method as in earlier work; settings: ref 6a; cited from earlier work
# T3 construct: made in house
# T3 sequence (P31749 whole entry): as the sequence (P31749 whole entry) above
# Akt1 [3] = target: T1, Akt1; experiment: Kinetic analysis with HTRF KinEASE (time-dependent IC50), kinetic parameters of inactivation; type: biochemical; parameters: purchased ProQinase; settings: mean ± SD, n=3
# From the text: The kinetic parameters of inactivation, namely the inhibition constant (K I) and the rate constant of enzyme inactivation (k inact), are therefore preferentially used to describe irreversible inhibitors.[28] K I is defined as the concentration of inhibitor required for half of the maximum potential rate of covalent bond formation, while k inact is defined as the maximum potential rate of covalent bond formation.[29] The ratio of k inact over K I, k inact/K I, accounts for both the potency of the inhibitor (K I) and the maximum potential rate of covalent bond formation (k inact) and thus represents the second‐order rate constant describing the efficiency of covalent complex formation.[29] Using a protocol published by Krippendorff et al., K I and k inact can be directly estimated from time‐dependent IC50 determinations by kinetic analysis with HTRF® KinEASE™.[28]
# Using a protocol published by Krippendorff et al., KI, kinact and kinact/KI could be directly
# estimated from time-dependent IC50 determinations by kinetic analysis with HTRF® KinEASE™,
# wild-type Akt1 [4] = target: T3, wild-type Akt1; experiment: LC-MS identification of covalent binders after co-incubation with Akt1; type: binding; settings: co-incubation with Akt1, Figure S1
# From the text: 2. Evaluation results … 4
# 4. Molecular Modelling … 57
# indicated covalent binding.
# BT-474 cells = experiment: CellTiter-Glo Luminescent Cell Viability Assay, BT-474; type: cell-based; settings: Homo sapiens, BT-474; breast cancer cell line; mean ± SD, n=3; read-out: EC50 BT‐474
# KU-19-19 cells = experiment: CellTiter-Glo Luminescent Cell Viability Assay, KU-19-19; type: cell-based; settings: Homo sapiens, bladder cancer cell line, Akt1 E17K/E49K, mean ± SD, n=3
# Description: The potential in vitro antiproliferative activity of the synthesised target compounds was investigated against a number of cancer cell lines by the CellTiter‐Glo® Luminescent Cell Viability Assay (from Promega Corporation, USA, catalogue number: G7570). The half‐maximal effective concentrations (EC50) of these compounds were determined against the AN3‐CA, BT‐474, KU‐19‐19, MCF‐7, T‐47D and ZR‐75‐1 cell lines originating from various tissues, i. e., breast, endometrium and bladder (Table S1). […]
# The CellTiter-Glo® Luminescent Cell Viability Assay from Promega was used for the cellular assays, performed as explained by Weisner et al.7,8 Information on the cancer cell lines are given in Table S1, the control compounds used in Figure S3 and the results in Table S2.
# Table S1. The cell lines used for the cellular assays, including what cancer type they are predominantly found in, and where the cell lines were acquired form.
# Cell line Cancer type Acquired from AN3CA Endometrium ATCC (provided by Prof. Jan G. Hengstler at Leibniz-Institut für Arbeitsforschung Dortmund)
# KU-19-19 Bladder Deutsche Sammlung von Mikroorganismen und Zellkulturen […]
# BT-474 CLS Cell Lines Service (provided by Prof. Jan G. Hengstler at […] Leibniz-Institut für Arbeitsforschung Dortmund)
structure (smiles),measurement,setting,value
"C=CC(=O)Nc1cccc(-c2cn(C3CCN(Cc4ccc(-c5nc6ccccn6c5-c5ccccc5)cc4)CC3)nn2)c1 [Compound 3, N ‐[3‐(1‐{1‐[4‐(3‐Phenylimidazo[1,2‐a]pyridin‐2‐yl)benzyl]piperidin‐4‐yl}‐1H‐1,2,3‐triazol‐4‐yl)phenyl]acrylamide]",EC50,ZR-75-1 cells,2.17 ± 0.517 µM
same,EC50,AN3CA cells,4.75 ± 1.54 µM
same,IC50,Akt1 [1],0.372 ± 0.0485 µM
same,IC50,Akt2,> 20 µM
same,EC50,T47D cells,4.07 ± 1.61 µM
same,EC50,MCF-7 cells,4.29 ± 1.13 µM
same,IC50,Akt3,> 20 µM
same,"covalent binding to Akt1, previously identified",wild-type Akt1 [2],covalent binder
same,Ki,Akt1 [3]; inhibition constant of inactivation,0.497 ± 0.107 µM
same,k inact,Akt1 [3],0.071 ± 0.006 min⁻¹
same,k inact/K I,Akt1 [3],2000 ± 1000 M⁻¹ s⁻¹
same,covalent binding to Akt1 (mass increase by LC-MS),wild-type Akt1 [4],quantitative protein labelling
same,EC50,BT-474 cells,8.27 ± 0.862 µM
same,EC50,KU-19-19 cells,12.4 ± 2.88 µM
